T/C data for 10 molecules are collected here from PubChem BioAssay AID328 (DTP/NCI, 2004).

This assay relates to BDF1 mice, P388 leukemia ip, median survival T/C. Put plainly: NCI In Vivo Anticancer Drug Screen. Data for tumor model P388 Leukemia (intraperitoneal) in B6D2F1 (BDF1) mice. The settings on record: endpoint: median survival time, higher = longer survival. The method, boiled down: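 Read-out is survival of treated animals expressed relative to the vehicle group, as a T/C ratio.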

Setting [1] is: dose: 50.0 mg/kg/injection, schedule: Q01DX009 (ip), vehicle: saline with Tween-80.
Where [2] appears, read: dose: 100.0 mg/kg/injection, schedule: Q01DX009 (ip), vehicle: saline with Tween-80.

The structures appear in SMILES notation. Values joined by “and” are separate entries in the source; they are usually repeats but may differ in a detail not shown here. Equal entries are not always repeated. Inconclusive results and toxic doses are left out.

`CC12CCCCC1C/C(=N/NC(N)=O)CC2` (configuration not stated): the T/C was 100 % of control (dose: 5.0 mg/kg/injection, schedule: Q01DX001 (ip), vehicle: saline); 100 % of control (dose: 10.0 mg/kg/injection, schedule: Q01DX001 (ip), vehicle: saline); 100 % of control (dose: 20.0 mg/kg/injection, schedule: Q01DX001 (ip), vehicle: saline); 104 % of control (dose: 40.0 mg/kg/injection, schedule: Q01DX001 (ip), vehicle: saline).
`CCOc1ccc(NC(=S)N(C)C)cc1`: the T/C by setting is: under setting [1], 90 % of control; under setting [2], 86 % of control.
For the molecule `CC1(C)N=C(N)N=C(N)N1c1cccc(CCCCOc2ccccc2)c1`, the T/C was 150 % of control (dose: 8.0 mg/kg/injection, schedule: Q01DX009 (ip), vehicle: saline with Tween-80); 150 % of control (dose: 12.0 mg/kg/injection, schedule: Q01DX009 (ip), vehicle: saline with Tween-80); 170 % of control (dose: 18.0 mg/kg/injection, schedule: Q01DX009 (ip), vehicle: saline with Tween-80).
Take `NC(C(=O)O)C1=CCC=CC1` (configuration not stated): the T/C is, setting by setting: under setting [1], 98 % of control; under setting [2], 99 % of control.
Consider `CC(=O)Nc1ccc(S(=O)(=O)N2CC2)cc1`, for which the T/C (dose: 25.0 mg/kg/injection, schedule: Q01DX005 (ip), vehicle: saline) is 98 % of control; the T/C (dose: 50.0 mg/kg/injection, schedule: Q01DX005 (ip), vehicle: saline) is 111 % of control; the T/C (dose: 100.0 mg/kg/injection, schedule: Q01DX005 (ip), vehicle: saline) was 98 % of control; the T/C (dose: 200.0 mg/kg/injection, schedule: Q01DX005 (ip), vehicle: saline) is 111 % of control.
Take `COC(=O)[C@@H]1c2cc3c(c(O)c2[C@@H](OC2OC(C)C(OC)C(C)(OC)C2OC)C[C@]1(C)O)C(=O)c1c(O)cc2c(c1C3=O)O[C@H]1O[C@]2(C)[C@H](O)[C@@H](N(C)C)[C@@H]1O` (some centres not stated): the T/C (dose: 0.13 mg/kg/injection, schedule: Q01DX010 (ip), vehicle: saline) is 113 % of control; the T/C (dose: 0.19 mg/kg/injection, schedule: Q01DX010 (ip), vehicle: saline) is 154 % of control; the T/C (dose: 0.25 mg/kg/injection, schedule: Q01DX009 (sc), vehicle: saline) was 100 % of control; the T/C (dose: 0.25 mg/kg/injection, schedule: Q01DX010 (ip), vehicle: saline) was 109 % of control; the T/C (dose: 0.38 mg/kg/injection, schedule: Q01DX010 (ip), vehicle: saline) was 150 % of control; the T/C (dose: 0.5 mg/kg/injection, schedule: Q01DX009 (sc), vehicle: saline) was 100 % of control. The T/C by setting is: (dose: 0.75 mg/kg/injection, schedule: Q01DX001 (sc), vehicle: saline) 100 % of control; (dose: 1.0 mg/kg/injection, schedule: Q01DX009 (ip), vehicle: saline) 109 % of control; (dose: 1.0 mg/kg/injection, schedule: Q01DX009 (sc), vehicle: saline) 100 % of control; (dose: 1.0 mg/kg/injection, schedule: Q01DX010 (ip), vehicle: saline) 155 % of control; (dose: 1.5 mg/kg/injection, schedule: Q01DX001 (sc), vehicle: saline) 100 % of control; (dose: 2.0 mg/kg/injection, schedule: Q01DX009 (ip), vehicle: saline) 100 % of control. The T/C reads like this: (dose: 2.0 mg/kg/injection, schedule: Q01DX009 (oral), vehicle: saline) 100 % of control; (dose: 2.0 mg/kg/injection, schedule: Q01DX009 (sc), vehicle: saline) 100 % of control; (dose: 2.16 mg/kg/injection, schedule: Q04DX003 (ip), vehicle: water) 95 % of control; (dose: 3.0 mg/kg/injection, schedule: Q01DX001 (sc), vehicle: saline) 100 % of control; (dose: 3.0 mg/kg/injection, schedule: Q04DX003 (ip), vehicle: water) 107 % of control; (dose: 4.0 mg/kg/injection, schedule: Q01DX009 (ip), vehicle: saline) 100 % of control. Also, the T/C is 100 % of control (dose: 4.0 mg/kg/injection, schedule: Q01DX009 (oral), vehicle: saline); 104 % of control (dose: 4.0 mg/kg/injection, schedule: Q01DX009 (sc), vehicle: saline); 100 % of control (dose: 5.0 mg/kg/injection, schedule: Q01DX001 (oral), vehicle: saline); 100 % of control (dose: 6.0 mg/kg/injection, schedule: Q01DX001 (sc), vehicle: saline); 100 % of control (dose: 8.0 mg/kg/injection, schedule: Q01DX009 (oral), vehicle: saline); 100 % of control (dose: 10.0 mg/kg/injection, schedule: Q01DX001 (oral), vehicle: saline). The T/C was 100 % of control (dose: 12.0 mg/kg/injection, schedule: Q01DX001 (sc), vehicle: saline); 100 % of control (dose: 16.0 mg/kg/injection, schedule: Q01DX009 (oral), vehicle: saline); 100 % of control (dose: 20.0 mg/kg/injection, schedule: Q01DX001 (oral), vehicle: saline); 100 % of control (dose: 40.0 mg/kg/injection, schedule: Q01DX001 (oral), vehicle: saline); 110 % of control (dose: 7.0 micrograms/kg/injection, schedule: Q01DX010 (ip), vehicle: saline); 90 % of control (dose: 15.0 micrograms/kg/injection, schedule: Q01DX010 (ip), vehicle: saline). For the same molecule, for the setting “dose: 30.0 micrograms/kg/injection, schedule: Q01DX010 (ip), vehicle: saline”, the T/C is 110 % of control.
Turning to `CCC1(O)CC2CN(CCc3c([nH]c4ccccc34)C(C(=O)OC)(c3cc4c(cc3OC)N(C)C3C(O)(C(N)=O)C(O)C5(CC)C=CCN6CCC43C65)C2)C1` (configuration not stated) (tested in a mixture with another compound), the T/C was 188 % of control (dose: 0.65 mg/kg/injection, schedule: Q04DX003 (ip), vehicle: saline); 154 % of control (dose: 0.87 mg/kg/injection, schedule: Q04DX003 (ip), vehicle: saline); 223 % of control (dose: 1.08 mg/kg/injection, schedule: Q04DX003 (ip), vehicle: saline); 187 % of control (dose: 1.3 mg/kg/injection, schedule: Q04DX003 (ip), vehicle: saline); 238 % of control (dose: 1.8 mg/kg/injection, schedule: Q04DX003 (ip), vehicle: saline); 163 % of control (dose: 2.0 mg/kg/injection, schedule: Q04DX003 (ip), vehicle: saline). The T/C reads like this: (dose: 3.0 mg/kg/injection, schedule: Q04DX003 (ip), vehicle: saline) 101 % of control; (dose: 500.0 micrograms/kg/injection, schedule: Q04DX003 (ip), vehicle: saline) 175 % of control; (dose: 648.0 micrograms/kg/injection, schedule: Q04DX003 (ip), vehicle: saline) 203 % of control; (dose: 1000.0 micrograms/kg/injection, schedule: Q04DX003 (ip), vehicle: saline) 250 % of control; (dose: 1080.0 micrograms/kg/injection, schedule: Q04DX003 (ip), vehicle: saline) 237 % of control; (dose: 1800.0 micrograms/kg/injection, schedule: Q04DX003 (ip), vehicle: saline) 237 % of control. In addition, the T/C was 211 % of control (dose: 2000.0 micrograms/kg/injection, schedule: Q04DX003 (ip), vehicle: saline) and 96 % of control (dose: 4000.0 micrograms/kg/injection, schedule: Q04DX003 (ip), vehicle: saline).
Regarding `CCCCCCCCCCCCCCCC(=O)N(C/C=C/CN(CCCN(C)C)C(=O)CCCCCCCCCCCCCCC)CCCN(C)C`, the T/C by setting is: (dose: 1.56 mg/kg/injection, schedule: Q01DX009 (ip), vehicle: saline with Tween-80) 95 % of control; (dose: 3.13 mg/kg/injection, schedule: Q01DX009 (ip), vehicle: saline with Tween-80) 100 % of control; (dose: 6.25 mg/kg/injection, schedule: Q01DX009 (ip), vehicle: saline with Tween-80) 113 % of control; (dose: 12.5 mg/kg/injection, schedule: Q01DX009 (ip), vehicle: saline with Tween-80) 95 % of control and 100 % of control.
As for `NOCc1csc(N)n1`, the T/C reads like this: (dose: 75.0 mg/kg/injection, schedule: Q04DX003 (ip), vehicle: saline) 91 % of control; (dose: 300.0 mg/kg/injection, schedule: Q04DX003 (ip), vehicle: saline) 87 % of control.
Regarding `COC(=O)C1OC1c1ccccc1` (configuration not stated), the T/C was 100 % of control (dose: 100.0 mg/kg/injection, schedule: Q01DX009 (ip), vehicle: Klucel (hydroxypropylcellulose) (HPC)); 95 % of control (dose: 100.0 mg/kg/injection, schedule: Q04DX003 (ip), vehicle: Klucel (hydroxypropylcellulose) (HPC)); 100 % of control (dose: 200.0 mg/kg/injection, schedule: Q01DX009 (ip), vehicle: Klucel (hydroxypropylcellulose) (HPC)); 95 % of control (dose: 200.0 mg/kg/injection, schedule: Q04DX003 (ip), vehicle: Klucel (hydroxypropylcellulose) (HPC)); 100 % of control (dose: 400.0 mg/kg/injection, schedule: Q01DX009 (ip), vehicle: Klucel (hydroxypropylcellulose) (HPC)); 95 % of control (dose: 400.0 mg/kg/injection, schedule: Q04DX003 (ip), vehicle: Klucel (hydroxypropylcellulose) (HPC)).
